Measurements: US6406853B1, “Interventions to mimic the effects of calorie restriction” (The Regents of the University of California, priority 1999, dated 2002)
Entries after “also recorded” stand apart in the source; their conditions may differ. Where two headings read alike, the source gives them in different places.

Key:
hepatic gene expression = assay: Global hepatic gene expression profile (GeneChip arrays, correlation coefficients); assay type: in vivo, mice
Method: GeneChip oligonucleotide-based high-density array RNA expression assays were performed according to the standard Affrymetrix protocol. The biotinylated, fragmented cRNA was hybridized to the Mu11KsubA and Mu11KsubB GeneChip arrays (Affymetrix, Santa Clara, Calif.), which contain targets for more than 11,000 known mouse genes and ESTs. The arrays were washed, stained and scanned. Scanned image analysis and data quantification were performed using the Affymetrix GeneChip analysis suite v3.2 at default parameter settings. Resultant data were normalized by global scaling.
Data analysis. Data sets were normalized furher using GeneSpring 3.0 (Silicon Genetics, San Carlos, Calif.). Negative expression levels were forced to zero, and the expression data for each animal divided by the median of all experimental values for that chip above an expression level of 10. This step reduced cliip-to-chip signal variation. Fold change in expression was calculated by dividing the mean of the expression levels in the CR groups by the mean of the expression levels in the control group.

[1] = STZ-treated animals; general statement; cited from earlier work
GRP78 mRNA = assay: Hepatic GRP78 mRNA in fasted and refed mice (dot-blot); assay type: in vivo; settings: liver; for GRP78 mRNA response to feeding (refed mice): fasted 48 h, i.p. injection 30 min before and 30 min after feeding, killed 1.5 h after feeding, dibutyryl-cAMP given with theophylline; for GRP78 mRNA in fasted mice: mice fasted 48 h, two i.p. injections; for postprandial induction of GRP78 mRNA in STZ-diabetic mice: STZ-induced diabetes combined with dibutyryl-cAMP and theophylline
Method: (§1) Retired male Swiss-Webster breeder mice were purchased from Jackson Laboratories. Beginning 30 days before the studies, the mice were fed Monday and Wednesday 11 g and Friday 16.6 g of the control diet daily at 0900 h. In fasting-feeding studies, mice were deprived of food for 48 h, fed 5.5 g of the control diet at 0900 h, and killed 90 min later. The food was consumed within 30 min. Diabetes was induced by three weekly intraperitoneal injections of streptozotocin [10 mg/100 g body weight (b.w.)] in 50 mM sodium citrate, pH 4.5. Mice were diabetic one week after the last injection. Only mice with blood glucose level higher than 3 mg/ml were used. Mice injected with equivalent volumes of sodium citrate served as controls for the STZ-diabetic mice. Adrenalectomized and sham-operated mice were purchased from Jackson Laboratories. Dibutyryl cAMP (Sigma; 18 mg.100 g b.w.), and theophylline (Sigma; 3 mg/100 g b.w), glucagon (Sigma; 300 μg/100 g b.w.), dexamethasone (Sigma; 125 μg/100 g b.w), cycloheximide (Sigma; 4 mg.100 g b.w.), and puromycin (Sigma; 10 mg.100 g b.w.), were administered intraperitonealy to mice as specified in the figure legends. Mice received two doses of each drug or drug combination. The first injection was administered 30 min before feeding, and the second injection was administered 30 min after feeding. Mice were killed 1.5 h after the start of feeding. Drug-injected mice consumed similar amounts of food as control animals during the feeding period. All animal use protocols were approved by the institutional animal use committee of the University of California, Riverside.
Mice were killed and the livers, kidneys, and muscle were removed. Muscle from the hind legs and back was removed and pooled for each animal. Tissues were flash frozen in liquid nitrogen. Approximately 0.2 g of frozen tissue was homogenized for 40 s in 4 ml of TRI Reagent (Molecular Research Center, Cincinnati, Ohio) using a Tekmar Tissuemizer (Tekmar, Cincinnait, Ohio) at a setting of 55. RNA was isolated as described by the TRI Reagent supplier. RNA was resuspended in FORMAzol (Molecular Research Center) and Northern and dot blots were performed using 20 and 10 μg of RNA respectively. The RNA was analyzed using Northern blots to verify its integrity. Dot blots were used to quantify mRNA levels (24; 27). Specific mRNA levels were normalized to the level of total RNA and/or mRNA present in each sample using hybridization with radiolabeled complementary DNA to 18S rRNA and/or transcription factor S-II, as indicated in the figure legends (12; 27). The murine ERp72 2.5 kb cDNA was excised with BamHI from pcD72-1 (19). The 1235 bp murine GRP75 coding fragment was excised with HindIII from pG7z-PBP1.8 (6). A 1.5 kb coding fragment of GRP78 cDNA was produced by digestion of p3C5 with EcoRI and PstI (15). A 1.4 kb hamster GRP94 coding fragment was produced by EcoRI and Sa/K digestion of p4A3 (15). A 664 bp coding fragment of rat calreticulin (nucleotides 148 to 812) was produced by PCR from GT10.U1 (23). The entire 2.4 kb cDNA of murine PDI was excised from pGEM59.4 with SacI and BamHII (19). A 1 kb coding fragment of hamster GRP170 cDNA was excised with EcoRI and XhoI from pCRtmII (16). The 1.9 kb cDNA of murine ERp57 was excised with HindIII and SstI from pERp61 (18). The 1 kb cDNA of murine HSC70 was excised with PstI from phsc1.5 (9). The 1.3 kb PEPCK coding fragment was produced by SphI followed by SalI digestions of pGEM5ZEP (a gift from Dr. Ganner D. K. Vanderbilt University School of Medicine, Nashville, Tenn.). The fragments were isolated by agarose gel electrophoresis and radioactively labeled using a ^T7QuickPrime Kit (Pharmacia) according to the manufacturer's instructions.

Life span of mice = assay type: in vivo; settings: mice fed aminoguanidine
PEPCK mRNA = assay: Hepatic PEPCK mRNA in fasted and refed mice (positive control); assay type: in vivo; settings: liver; mice fasted 48 h or refed
Method: as §1, with “The first injection was administered 30 min before feeding, and the second injection was administered 30 min after feeding. Mice were killed 1.5 h after the start of feeding. Drug-injected mice consumed similar amounts of food as control animals during the feeding period. All animal use protocols were approved by the institutional animal use committee of the University of California, Riverside.” left out
Mice were killed and the livers, kidneys, and muscle were removed. […] The RNA was analyzed using Northern blots to verify its integrity. Dot blots were used to quantify mRNA levels (24; 27). […]

CN(N=O)C(=O)N[C@H]1C(O)O[C@H](CO)[C@@H](O)[C@@H]1O (mixture of isomers) [STZ, streptozotocin]
hepatic gene expression compared with young CR and young control mice (hepatic gene expression; STZ-diabetic mice, diabetic about 4 weeks): very different
effect on life span [1]: shortens
GRP78 mRNA response to feeding (refed mice) (GRP78 mRNA): blunted response; also recorded: significantly reduced
GRP78 mRNA in fasted mice (GRP78 mRNA): did not modify

N=C(N)NN [aminoguanidine, Aminoguanidine]
effect on life span (Life span of mice): little or no effect
correlation of gene expression with old CR or old control mice (hepatic gene expression; mice fed aminoguanidine): did not correlate
effect on hepatic gene expression (hepatic gene expression; mice fed aminoguanidine): large effect

C[C@@H]1C[C@@H]([C@H](O)CC2CC(=O)NC(=O)C2)C(=O)[C@@H](C)C1 [cycloheximide]
GRP78 mRNA response to feeding (refed mice) (GRP78 mRNA): strongly induced
GRP78 mRNA in fasted mice (GRP78 mRNA): strongly induced; also recorded: induced the mRNA to the same extent
PEPCK mRNA in both fasted and refed mice (PEPCK mRNA): increased

CCCC(=O)Nc1ncnc2c1ncn2[C@@H]1O[C@@H]2COP(=O)(O)O[C@H]2[C@H]1OC(=O)CCC [dibutyryl cAMP, Dibutyryl cAMP]
postprandial induction of GRP78 mRNA in STZ-diabetic mice (GRP78 mRNA; listed as cAMP): obliterated
postprandial induction of GRP78 mRNA in STZ-diabetic mice (GRP78 mRNA; listed as dibutyryl-cAMP): absence of a feeding response
GRP78 mRNA response to feeding (refed mice) (GRP78 mRNA): reduced the response
GRP78 mRNA response to feeding (refed mice) (GRP78 mRNA; listed as dibutyryl-cAMP): blunted

COc1ccc(C[C@H](N)C(=O)N[C@H]2[C@@H](O)[C@H](n3cnc4c(N(C)C)ncnc43)O[C@@H]2CO)cc1 [puromycin]
GRP78 mRNA response to feeding (refed mice) (GRP78 mRNA): fully induced
GRP78 mRNA in fasted mice (GRP78 mRNA): modestly induced; also recorded: partial induction

glucagon
GRP78 mRNA response to feeding (refed mice) (GRP78 mRNA): reduced the response; also recorded: blunted
